Measured values from ChEMBL document CHEMBL6153034, “Synthesis of dolutegravir derivatives modified by 1,2,3-triazole structure and their anti-inflammatory activity in LPS-induced BV2 cells” (Bioorg Med Chem Lett, 2025).
The source made the active and inactive calls. No cut-off for these calls is given here.

Assays:
BV-2 [1] = test: Antiinflammatory activity in LPS induced mouse BV-2 cells assessed as inhibition of NO production by Griess reagent based assay; type: functional, cell-based
[2] = Cytotoxicity against mouse BV-2 cells assessed as cell viability at 1 uM by MTT assay relative to control; type: toxicity, cell-based; conditions: read-out: Activity
[3] = Acute toxicity in male Kunming mouse assessed as histopathological changes in heart at 250 mg/kg administered via gavage by H and E staining based analysis; type: organism-based; conditions: in vivo, po
BV-2 [4] = test: Antiinflammatory activity in LPS-induced mouse BV-2 cells assessed as decrease in TNF-alpha production preincubated for 2 hrs followed by LPS addition and measured after 24 hrs by qRT-PCR analysis; type: functional, cell-based; conditions: dose 5-10 µM, time 26.0 hrs
BV-2 [5] = test: Inhibition of LPS-induced nuclear translocation of p-STAT1 in mouse BV-2 cells at 10 uM preincubated for 2 hrs followed LPS addition and measured after 3 hrs by DAPI staining based immunofluorescence assay; type: functional, cell-based; conditions: time 5.0 hrs
BV-2 [6] = test: Antiinflammatory activity in LPS-induced mouse BV-2 cells assessed as reduction in NO production preincubated for 2 hrs followed by LPS addition and measured after 24 hrs by Griess reagent based analysis; type: functional, cell-based; conditions: dose 5-10 µM, time 26.0 hrs
[7] = Acute toxicity in male Kunming mouse assessed as effect on organ coefficient of lung at 250 mg/kg administered via gavage; type: organism-based; conditions: in vivo, po
[8] = Acute toxicity in female Kunming mouse assessed as effect on GOT level in blood at 250 mg/kg administered via gavage by biochemical analysis; type: organism-based; conditions: in vivo, po
BV-2 [9] = test: Antiinflammatory activity in LPS induced mouse BV-2 cells assessed as NO production at 1 uM by Griess reagent based assay relative to control
BV-2 [10] = test: Antiinflammatory activity in LPS-induced mouse BV-2 cells assessed as decrease in IL-6 production preincubated for 2 hrs followed by LPS addition and measured after 24 hrs by qRT-PCR analysis; type: functional, cell-based; conditions: dose 5-10 µM, time 26.0 hrs
[11] = Acute toxicity in male Kunming mouse assessed as effect on organ coefficient of kidney at 250 mg/kg administered via gavage; type: organism-based; conditions: in vivo, po
BV-2 [12] = test: Antiinflammatory activity in LPS-induced mouse BV-2 cells assessed as downregulation of COX2 mRNA expression level at 5 to 10 uM preincubated for 2 hrs followed by LPS addition and measured after 6 hrs by qRT-PCR analysis; type: functional, cell-based; conditions: dose 5-10 µM, time 8.0 hrs
[13] = Acute toxicity in male Kunming mouse assessed as effect on organ coefficient of liver at 250 mg/kg administered via gavage; type: organism-based; conditions: in vivo, po
BV-2 [14] = test: Antiinflammatory activity in LPS-induced mouse BV-2 cells assessed as downregulation of iNOS protein expression level preincubated for 2 hrs followed by LPS addition and measured after 24 hrs by Western blot analysis; type: functional, cell-based; conditions: dose 5-10 µM, time 26.0 hrs
BV-2 [15] = test: Inhibition of LPS-induced nuclear translocation of p-STAT1 in mouse BV-2 cells at 10 uM preincubated for 2 hrs followed LPS addition and measured after 3 hrs by Western blot analysis; type: functional, cell-based; conditions: time 5.0 hrs
[16] = Acute toxicity in female Kunming mouse assessed as effect on body weight at 250 mg/kg administered via gavage for 14 days; type: organism-based; conditions: in vivo, po, 336 h, time 14 day
BV-2 [17] = test: Antiinflammatory activity in LPS induced mouse BV-2 cells assessed as downregulation of IL-1beta mRNA expression level preincubated for 2 hrs followed by LPS addition and measured after 24 hrs by qRT-PCR analysis; type: functional, cell-based; conditions: dose 5-10 µM, time 26.0 hrs
[18] = Acute toxicity in female Kunming mouse assessed as histopathological changes in heart at 250 mg/kg administered via gavage by H and E staining based analysis; type: organism-based; conditions: in vivo, po
[19] = Acute toxicity in male Kunming mouse assessed as histopathological changes in lung at 250 mg/kg administered via gavage by H and E staining based analysis; type: organism-based; conditions: in vivo, po
[20] = Acute toxicity in male Kunming mouse assessed as effect on body weight at 250 mg/kg administered via gavage for 14 days; type: organism-based; conditions: in vivo, po, 336 h, time 14 day
BV-2 [21] = test: Antiinflammatory activity in LPS induced mouse BV-2 cells assessed as downregulation of TNF-alpha mRNA expression level preincubated for 2 hrs followed by LPS addition and measured after 24 hrs by qRT-PCR analysis; type: functional, cell-based; conditions: dose 5-10 µM, time 26.0 hrs
[22] = Acute toxicity in female Kunming mouse assessed as histopathological changes in spleen at 250 mg/kg administered via gavage by H and E staining based analysis; type: organism-based; conditions: in vivo, po
[23] = Acute toxicity in female Kunming mouse assessed as effect on GPT level in blood at 250 mg/kg administered via gavage by biochemical analysis; type: organism-based; conditions: in vivo, po
[24] = target: T1, Signal transducer and activator of transcription 1 (Mus musculus) (UniProt P42225); test: Inhibition of STAT1 phosphorylation at Tyr701 residue in LPS-induced mouse BV-2 cells at 5 to 10 uM preincubated for 2 hrs followed by LPS addition and measured after 3 hrs by Western blot analysis; type: cell-based; conditions: dose 5-10 µM, time 5.0 hrs
T1 sequence (whole entry): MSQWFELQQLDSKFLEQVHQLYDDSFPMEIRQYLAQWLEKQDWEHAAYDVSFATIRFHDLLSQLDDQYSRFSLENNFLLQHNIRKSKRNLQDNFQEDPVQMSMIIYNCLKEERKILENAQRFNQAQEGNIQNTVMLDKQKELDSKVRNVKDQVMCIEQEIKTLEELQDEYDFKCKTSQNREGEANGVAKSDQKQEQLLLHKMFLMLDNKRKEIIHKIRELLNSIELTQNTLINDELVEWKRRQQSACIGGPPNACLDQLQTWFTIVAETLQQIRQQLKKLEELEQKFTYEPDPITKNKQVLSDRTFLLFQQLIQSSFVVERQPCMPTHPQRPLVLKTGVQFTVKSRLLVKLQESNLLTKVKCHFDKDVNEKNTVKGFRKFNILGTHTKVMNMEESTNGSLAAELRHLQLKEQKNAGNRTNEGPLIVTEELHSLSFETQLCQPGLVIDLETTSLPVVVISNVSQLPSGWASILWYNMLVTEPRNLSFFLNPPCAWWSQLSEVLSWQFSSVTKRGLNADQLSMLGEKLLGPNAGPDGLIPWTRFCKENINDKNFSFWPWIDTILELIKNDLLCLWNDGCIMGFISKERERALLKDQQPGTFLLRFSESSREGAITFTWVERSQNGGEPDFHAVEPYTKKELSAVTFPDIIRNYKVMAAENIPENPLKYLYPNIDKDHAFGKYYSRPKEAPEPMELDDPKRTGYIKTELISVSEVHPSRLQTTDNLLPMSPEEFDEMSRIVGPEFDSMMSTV

BV-2 [25] = test: Antiinflammatory activity in LPS induced mouse BV-2 cells assessed as NO production at 10 uM by Griess reagent based assay relative to control
BV-2 [26] = test: Inhibition of LPS-induced nuclear translocation of p-STAT3 in mouse BV-2 cells at 10 uM preincubated for 2 hrs followed LPS addition and measured after 3 hrs by DAPI staining based immunofluorescence assay; type: functional, cell-based; conditions: time 5.0 hrs
[27] = Acute toxicity in female Kunming mouse assessed as effect on organ coefficient of lung at 250 mg/kg administered via gavage; type: organism-based; conditions: in vivo, po
[28] = Acute toxicity in female Kunming mouse assessed as histopathological changes in lung at 250 mg/kg administered via gavage by H and E staining based analysis; type: organism-based; conditions: in vivo, po

**Q.** What does the source list for `COc1c2n(cc(C(=O)Nc3cccc(-c4cn(-c5ccccc5Cl)nn4)c3)c1=O)C[C@@H]1OCC[C@@H](C)N1C2=O`?
**A.** IC50 (BV-2 [1]): 4.45 µM; viability at 1 µM [2]: 88%; Activity [3]: Non-toxic; Activity (BV-2 [4]): Dose-dependent-effect; inhibition (BV-2 [5]): Active; Activity (BV-2 [6]): Dose-dependent-effect; Activity [7]: Non-toxic; Activity [8]: Non-toxic; level, % of control at 1 µM (BV-2 [9]): 71%; Activity (BV-2 [10]): Dose-dependent-effect; Activity [11]: Non-toxic; Activity (BV-2 [12]): Active; Activity [13]: Non-toxic; Activity (BV-2 [14]): Dose-dependent-effect; inhibition (BV-2 [15]): Active; Activity [16]: Non-toxic; Activity (BV-2 [17]): Dose-dependent-effect; Activity [18]: Non-toxic; Activity [19]: Non-toxic; Activity [20]: Non-toxic; Activity (BV-2 [21]): Dose-dependent-effect; Activity [22]: Non-toxic; Activity [23]: Non-toxic; inhibition [24]: Active; level, % of control at 10 µM (BV-2 [25]): 43%; inhibition (BV-2 [26]): Active; Activity [27]: Non-toxic; Activity [28]: Non-toxic
